Measurements as given in BindingDB's records for patent US12427146 (Inventisbio Co., 2025).

Columns and labels:
[1] = target: Tyrosine-protein kinase CSK (Homo sapiens, UniProt P41240); test: CSK Inhibition Assay
Experimental: Test compound was dissolved in DMSO at 10 mM. 45 uL of compound was transferred into a 384-well compound source plate (LABCYTE cat #P-05525) and serially diluted at 1:3 ratio to create a 11-point dilutions. The same volume of DMSO was adopted as high control. 20 nL of these compounds DMSO dilutes were dispensed into a new 384-well assay plate by Echo 550. […] 15 uL of kinase assay buffer containing CSK protein and substrate was transferred to assay plate and incubated at RT for 30 minutes. Kinase assay buffer supplemented with substrate peptides was employed as low control to monitor the background. 4 μM of ATP was prepared in kinase assay buffer and 5 μL of ATP solution was added to each well to start the reaction. The assay plate was incubated at 25° C. for 90 minutes and the reaction was stopped by adding 40 μL of 0.5 M EDTA.

[2] = target: Tyrosine-protein kinase Lck (Homo sapiens, UniProt P06239); test: LCK Inhibition Assay
Chain of Tyrosine-protein kinase Lck (P06239 whole entry): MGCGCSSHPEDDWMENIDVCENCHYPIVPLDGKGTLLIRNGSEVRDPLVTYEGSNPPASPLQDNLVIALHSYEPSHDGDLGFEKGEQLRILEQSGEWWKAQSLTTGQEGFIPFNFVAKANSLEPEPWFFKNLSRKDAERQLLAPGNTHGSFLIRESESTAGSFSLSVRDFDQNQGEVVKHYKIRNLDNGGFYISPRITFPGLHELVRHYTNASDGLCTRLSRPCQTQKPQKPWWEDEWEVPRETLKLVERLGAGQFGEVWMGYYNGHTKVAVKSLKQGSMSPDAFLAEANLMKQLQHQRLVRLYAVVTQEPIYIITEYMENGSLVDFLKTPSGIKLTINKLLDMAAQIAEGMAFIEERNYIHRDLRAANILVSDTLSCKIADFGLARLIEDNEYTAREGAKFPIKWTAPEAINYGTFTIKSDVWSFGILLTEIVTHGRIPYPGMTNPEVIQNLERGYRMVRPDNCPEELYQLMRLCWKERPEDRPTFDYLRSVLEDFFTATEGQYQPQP
Experimental: Test compound was dissolved in DMSO at 10 mM. 45 uL of compound was transfer into a 384-well compound source plate (LABCYTE cat #P-05525) and serially diluted at 1:3 ratio to create a 11-point dilutions. The same volume of DMSO was adopted as high control. 20 nL of these compounds DMSO dilutes were dispensed into a new 384-well assay plate by Echo 550. LCK protein (0.50 nM, Cama Biosciences, cat #08-170), florescent labeled substrate FLPeptide4 (2 μM, PerkinElmer, cat #760348) was prepared in kinase assay buffer (50 mM HEPES (pH 7.5), 10 mM MgCl2, 0.01% Brij-35, 2 mM DTT and 0.005 mg/ml BSA). 15 uL of kinase assay buffer containing LCK protein and substrate was transferred to assay plate and incubate at RT for 30 minutes. Kinase assay buffer supplemented with substrate peptides was employed as low control to monitor the background. 400 μM ATP was prepared in kinase assay buffer and 5 μL of ATP solution was added to each well to start the reaction. The assay plate was incubated at 25° C. for 90 minutes and the reaction was stopped by adding 40 μL of 0.5 M EDTA.

Chain of Tyrosine-protein kinase CSK (P41240 whole entry): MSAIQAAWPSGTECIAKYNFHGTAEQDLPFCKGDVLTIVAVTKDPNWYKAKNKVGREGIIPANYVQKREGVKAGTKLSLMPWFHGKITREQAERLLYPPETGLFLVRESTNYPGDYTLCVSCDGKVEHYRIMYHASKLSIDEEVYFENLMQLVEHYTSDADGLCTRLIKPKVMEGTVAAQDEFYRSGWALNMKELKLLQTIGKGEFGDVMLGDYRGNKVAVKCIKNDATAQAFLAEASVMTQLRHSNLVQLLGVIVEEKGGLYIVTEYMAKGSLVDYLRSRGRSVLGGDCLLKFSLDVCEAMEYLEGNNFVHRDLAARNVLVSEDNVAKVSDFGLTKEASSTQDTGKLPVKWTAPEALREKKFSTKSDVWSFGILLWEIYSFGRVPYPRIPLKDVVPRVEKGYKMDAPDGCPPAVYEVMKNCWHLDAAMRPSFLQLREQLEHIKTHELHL

Row | SMILES | IC50 [1] [nM] | IC50 [2] [nM]
1 | Nc1nccc(-c2sc(-c3ccccc3)nc2-c2cccc(NS(=O)(=O)c3ccc4c(c3)CNC4=O)c2F)n1 [US12427146, Compound 81] | 4510 | 
2 | Nc1nccc(-c2sc(-c3ccccc3)nc2-c2cc(F)cc(NS(=O)(=O)c3c(F)cccc3F)c2)n1 [US12427146, Compound 20] | 132 | > 1000
3 | COc1cc(NS(=O)(=O)c2c(F)cccc2F)cc(-c2nc(-c3cncc(F)c3)sc2-c2ccnc(N)n2)c1 [US12427146, Compound 21] | 25.2 | 
4 | Nc1nccc(-c2sc(-c3ccccc3)nc2-c2cccc(NS(=O)(=O)c3ccc4c(c3)CNC4)c2F)n1 [US12427146, Compound 82] | > 10000 | 
5 | COc1cc(NS(=O)(=O)c2c(F)cccc2F)c(F)c(-c2nc(-c3ccccc3)sc2-c2ccnc(N)n2)c1 [US12427146, Compound 23] | 4.1 | < 100
6 | COc1cc(F)c(S(=O)(=O)Nc2cccc(-c3nc(-c4ccccc4)sc3-c3ccnc(N)n3)c2F)c(F)c1 [US12427146, Compound 22] | 44.8 | > 1000
